Results published in paper PMC12535076, “Neurotherapeutic effects of Vutiglabridin as a Paraoxonase-2 modulator in preclinical models of Parkinson’s disease” (Molecular Neurodegeneration, 2025).
Read-outs that look alike come from different tables or passages of the source.

Experiments:
[1] = molecular target: T1, P-glycoprotein (P-gp, MDR1) (Homo sapiens, UniProt P08183); experiment: P-glycoprotein (P-gp) efflux assay in cell monolayers; format: in vitro ADME; conditions: MDCKII, MDCKII-hMDR1 and Caco-2 monolayers, with and without P-gp inhibitor GF120918
T1 construct: expressed in transfected cells; host or cells: MDCKII-hMDR1 (canine kidney cells carrying human MDR1); also parental MDCKII and Caco-2 (endogenous human P-gp)
Procedure: P-gp efflux ratio was determined in MDCKII-hMDR1, MDCKII [61], and Caco-2 cell monolayer via LC-MS/MS analysis, in accordance with the standard FDA guideline on transporter-mediated drug interactions. 10 µM of GF120918 was used as P-gp inhibitor. The apical (A-to-B) and basolateral (B-to-A) permeability coefficient (Papp) were measured to yield the efflux ratio.
(a) Measurement of Vuti concentration in octanol and aqueous phase (pH7.4 phosphate buffer) via HPLC. The mean value of three replicates was used, and the limit of quantification (LOQ) value was used to calculate Log D as a log of concentration in the octanol phase divided by the concentration in the aqueous phase. (b) Efflux ratios (Papp(B→A)/Papp(A→B)) of Vuti in three types of cell monolayers, with or without P-glycoprotein (P-gp) inhibitor GF120918. (c) Schematic of 14C-labeling of Vuti. Attachment to the ethoxy group is warranted because it is robustly maintained throughout metabolism. (d) Plasma radioactivity concentration in Sprague-Dawley rats after a single administration of 10 mg/kg of 14C-Vuti (n = 3).

[2] = test system: primary cultured astrocytes; experiment: Intracellular H2O2 (oROS-G sensor) in 6-OHDA-treated astrocytes; format: cell-based
Procedure: Intracellular H2O2 levels in astrocytes were measured using a genetically encoded oROS-G plasmid, which is highly sensitive and specific for H2O2 with rapid on-and-off kinetics. The plasmid was generously provided by Dr. Andre Berndt and was cloned under the GFAP104 promoter. Transfection into primary cultured hippocampal astrocytes was carried out using the NeoNTM transfection system (Invitrogen). Astrocytes were seeded into 96-well black plates (ibidi, USA) and treated with 6-OHDA (10 µM) in the presence of 1, 10, and 30 µM of Vuti. Fluorescence changes were monitored using a Nikon A1 confocal microscope over a period of 21 h for live cell imaging. The fluorescence intensity for each region of interest (ROI) was analyzed using Nikon software, and the data were normalized to control values for the IC50. The IC50 value for Vuti was determined using GraphPad Prism software.

[3] = Quantification of drug concentration in plasma and brain of mice (LC-MS/MS); format: in vivo, C57BL/6J mice; conditions: mouse
Procedure: Male C57BL/6J mice (8 weeks old, n = 24, non-fasted; Charles River Japan (CRJ), OrientBio, Seongnam, Korea) were dosed with 50 mg/kg of Vuti once and sacrificed at 0, 1, 2, 4, 6, 8, 10, 24 h time point (n = 3 per time point). Their whole blood was collected via the vena cava in a heparin-coated syringe and their whole brain was collected after perfusion with 0.9% saline. Vuti was quantified in both plasma and brain samples using LC-MS/MS analysis. This study was performed in accordance with the Association for Assessment and Accreditation of Laboratory Animal Care International (AAALAC; Approval No. LCDI-2021-0027).
LC-MS/MS analysis to quantify Vuti used previously set conditions. Briefly, HPLC-ESI-MS/MS analyses were performed using a 1200 series HPLC system (Agilent Technologies, Wilmington, DE) coupled to 6490 Accurate-Mass Triple Quadrupole Mass Spectrometer (Agilent Technologies, Wilmington, DE). Mass detection was performed in the positive ion mode, and the column temperature was maintained at 40 °C using a thermostatically controlled column oven. The column used for the separation was Hypersil GOLD C18 column (2.1 × 100 mm ID; 1.9 μm, Thermo Science). The mobile phases consisted of 0.1% acetic acid in distilled water (solvent A) and 0.1% acetic acid in ACN: MeOH = 3:1 (v/v) (solvent B). The LC gradient was as follows: 0–3 min, B 20%; 3–5 min, B 20 − 80%; 5–8 min, B 80%; 8–10 min, B 80 − 20%; and 10–15 min, B 20%. The flow rate was 250 µL/ min, and the total run time was 15 min. For multiple reaction monitoring (MRM) analyses, the target transition used was 355.1/151.0 m/z for Vuti. The collision energy was 17 V and nitrogen was used as the desolvation gas at a flow rate of 11 L/min and at 300 °C. Skyline software (MacCoss Laboratory, University of Washington, Seattle, WA) was used to process the LC-MS/MS data.

T1 sequence (P08183 whole entry): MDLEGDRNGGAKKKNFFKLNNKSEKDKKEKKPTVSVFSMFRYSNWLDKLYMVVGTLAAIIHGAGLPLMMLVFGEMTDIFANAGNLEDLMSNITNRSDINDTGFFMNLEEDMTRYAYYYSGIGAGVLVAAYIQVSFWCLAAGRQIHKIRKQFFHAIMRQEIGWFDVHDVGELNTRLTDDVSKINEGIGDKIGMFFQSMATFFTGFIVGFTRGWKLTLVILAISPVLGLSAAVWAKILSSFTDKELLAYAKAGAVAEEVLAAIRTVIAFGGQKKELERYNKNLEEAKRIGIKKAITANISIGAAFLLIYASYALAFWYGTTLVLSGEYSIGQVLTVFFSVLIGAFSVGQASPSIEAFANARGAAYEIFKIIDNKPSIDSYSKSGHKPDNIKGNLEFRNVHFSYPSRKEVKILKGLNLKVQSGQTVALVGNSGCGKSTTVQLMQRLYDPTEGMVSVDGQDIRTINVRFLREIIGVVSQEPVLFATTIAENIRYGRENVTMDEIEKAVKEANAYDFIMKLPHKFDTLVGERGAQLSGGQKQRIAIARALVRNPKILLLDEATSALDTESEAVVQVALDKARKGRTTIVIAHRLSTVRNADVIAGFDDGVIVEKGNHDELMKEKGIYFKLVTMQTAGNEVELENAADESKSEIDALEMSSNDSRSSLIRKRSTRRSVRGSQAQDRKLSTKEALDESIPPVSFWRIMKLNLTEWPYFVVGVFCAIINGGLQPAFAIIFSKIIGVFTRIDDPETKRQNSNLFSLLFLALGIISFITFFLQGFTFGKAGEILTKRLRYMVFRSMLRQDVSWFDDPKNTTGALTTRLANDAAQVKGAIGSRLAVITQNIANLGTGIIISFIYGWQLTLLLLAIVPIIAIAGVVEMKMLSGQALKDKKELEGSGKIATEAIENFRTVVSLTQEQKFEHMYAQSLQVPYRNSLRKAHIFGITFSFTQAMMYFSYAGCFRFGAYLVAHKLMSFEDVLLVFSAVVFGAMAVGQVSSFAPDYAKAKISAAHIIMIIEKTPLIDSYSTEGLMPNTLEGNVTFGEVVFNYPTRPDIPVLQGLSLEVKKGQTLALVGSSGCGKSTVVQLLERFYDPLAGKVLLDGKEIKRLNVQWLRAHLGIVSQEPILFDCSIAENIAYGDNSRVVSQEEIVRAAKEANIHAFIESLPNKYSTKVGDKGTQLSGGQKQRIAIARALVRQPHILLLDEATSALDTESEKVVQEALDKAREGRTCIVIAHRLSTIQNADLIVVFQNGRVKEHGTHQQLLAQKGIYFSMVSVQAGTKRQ

CCOc1ccc(C2COc3c(ccc4c3CCC(C)(C)O4)C2)c(O)c1 (stereo not shown) [Vuti, Vutiglabridin]
efflux ratio (Papp(B→A)/Papp(A→B)) [1]: low efflux ratio | ROS levels in 6-OHDA-treated astrocytes ([2]; 30 µM Vuti): significantly reduced ROS levels | IC50 ([2]; Astrocyte, 6-OHDA 10 µM treated primary cultured astrocytes, Vuti 1, 10, 30 µM, read-out: normalized IC50 (ROS, oROS-G sensor imaging)): 21 µM | Kp at 6 h ([3]; male, C57BL/6J, brain / plasma, oral, single 50 mg/kg, at Tmax of 6 h, read-out: brain concentration relative to plasma): 2.7 | Kp ([3]; male, C57BL/6J, brain / plasma, single oral 50 mg/kg, read-out: brain relative to plasma by AUC24h): 2.6 | concentration at 6 h ([3]; male, C57BL/6J, brain, single oral 50 mg/kg, at Tmax of 6 h, read-out: concentration in brain): 4030 ng/g | Tmax ([3]; male, C57BL/6J, plasma, single oral 50 mg/kg): 6 h | concentration at 6 h ([3]; male, C57BL/6J, plasma, single oral 50 mg/kg, at Tmax of 6 h, read-out: concentration in plasma): 1490 ng/mL | AUC(0-t) ([3]; male, C57BL/6J, plasma, single oral 50 mg/kg, read-out: AUC24h in plasma): 16100 ng·h/mL | AUC24h in brain ([3]; single oral 50 mg/kg): 42.5 µg·h/g
